{"source": "patent US20210324441A1", "about": "“CHARACTERIZATION OF MICROORGANISMS VIA MALDI-TOF” (BIOMÉRIEUX, priority 2014, published 2021)", "key": {"[1]": {"tested_on": "K. pneumoniae", "experiment": "MIC of ampicillin for the bacterial strain", "format": "cell-based", "conditions": "strain 1, K. pneumoniae, resistant"}, "[2]": {"tested_on": "E. coli", "experiment": "MIC of ampicillin for the bacterial strain", "format": "cell-based"}, "[3]": {"experiment": "Negative control without enzyme: ampicillin dried on MALDI plate, MALDI-TOF detection", "format": "physicochemical", "conditions": "water with 0.76 mM zinc, no enzyme, ambient temperature, one hour", "procedure": "In the present experiment, an analysis zone of a MALDI plate (VITEK® MS disposable slides TO-430) was treated with a beta-lactam antibiotic and tested in order to evaluate the capacity of the antibiotics to be cleaved by a beta-lactamase. Ampicillin was used as the model for the antibiotic beta-lactam. The experiment was carried out by implementing the steps below: • 2 μL of a solution of ampicillin in a concentration of 10 mg/mL in water was deposited in the form of a drop onto an analysis zone of the MALDI plate. The plate was incubated at 37° C., until the drop had dried out completely. • 2 μL of a recombinant beta-lactamase (β-lactamase from Pseudomonas aeruginosa, Sigma-Aldrich batch L6170-550UN. CAS: 9073-60-3). • 2 μL of recombinant β-lactamase at a concentration of 1 mg/mL in water was used diluted in water supplemented with zinc in the form of zinc sulfate (0.76 millimoles (mM)) to promote enzymatic activity, was deposited onto the dry analysis zone carrying ampicillin. […]"}}}
{"smiles": "CC1(C)S[C@@H]2[C@H](NC(=O)[C@H](N)c3ccccc3)C(=O)N2[C@H]1C(=O)O", "note": "[ampicillin]", "values": [{"measurement": "MIC of ampicillin (minimum inhibiting concentration of the strain)", "setting": "[1]", "result": 32}, {"measurement": "MIC of ampicillin (minimum inhibiting concentration of the strain)", "setting": "[2]; strain 2, E. coli, resistant, penicillinase", "result": ">128"}, {"measurement": "MIC of ampicillin (minimum inhibiting concentration of the strain)", "setting": "[2]; strain 3, E. coli, resistant, TEM β-lactamase", "result": ">128"}, {"measurement": "MIC of ampicillin (minimum inhibiting concentration of the strain)", "setting": "[2]; strain 4, E. coli ATCC 25922, sensitive, no β-lactamase", "result": 4}, {"measurement": "spontaneous hydrolysis on the plate", "setting": "[3]", "result": "A little spontaneous hydrolysis"}]}
